We go through five molecules from US7220437B2, “Antiviral and antibacterial activities of extracts from eight plants” (priority 1996, dated 2007).

Values after ≈ are worked out from the molar mass of the structure shown. Counter-ions that a name gives are not always drawn. Marks after values point to notes of the source that are not given here. A value given as a limit tells only on which side of the number the result lay.

Data set [1] relates to HIV-1 strain GH3. The experiment in a line: Anti-HIV cytopathicity, acute infection of M8166 cells. It is filed as cell-based. As to conditions: high multiplicity of infection of 0.11424.
The subject of data set [2] is HIV-2 strain GH1. The experiment in a line: Anti-HIV-2 cytopathicity in Molt 4 clone 8 cells. The data set is classed as cell-based.
Data set [3] concerns Salmonella typhimurium. The experiment in a line: Bacteria growth, tetrazolium-based colorimetry.
Data set [4] relates to Edwardsiella species. The experiment in a line: Bacteria growth, tetrazolium-based colorimetry.
In data set [5] the test system is Staphylococcus aureus. The experiment in a line: Bacteria growth, tetrazolium-based colorimetry.
For data set [6], the system named is Klebsiella pneumoniae. Put plainly: Bacteria growth, tetrazolium-based colorimetry.
In data set [7] the test system is PBMCs. The experiment in a line: Ex vivo effects on culture induced death of PBMCs of AIDS patients. It is filed as cell-based, human. The conditions noted are these: four AIDS patients; noncytotoxic concentrations.
Data set [8] deals with PBMCs.
[9] abbreviates: MOI 0.018, treatment after 40 mins of virus adsorption.
Where [10] appears, read: Salmonella enterica, TYPHIMURIUM
Setting [11] is: Edwardsiella, inoculum 10^1 CID50.
Where [12] appears, read: Edwardsiella, inoculum 10^2 CID50.
[13] abbreviates: Edwardsiella, inoculum 10^3 CID50.

In the case of `Cc1cn([C@H]2C[C@H](N=[N+]=[N-])[C@@H](CO)O2)c(=O)[nH]c1=O` [AZT, 3′-azido-2′,3′-dideoxythymidine], the cell protection in data set [1] is < 90%. In addition, the half-maximal effective concentration (EC50) in data set [2] (MOI 0.018, treatment 2 hrs after virus adsorption) is 0.000001 mg/mL (≈ 0.00374 µM); in data set [2] (setting [9]), <0.0000003* mg/ml. In data set [2] (setting [9]), the 90% effect concentration (EC90) stood at 0.3 µg/mL (≈ 1.12 µM).
`[H]/N=C(/N)N[C@H]1[C@H](O)[C@@H](O)[C@H](O[C@@H]2O[C@@H](C)[C@](O)(C=O)[C@H]2O[C@@H]2O[C@@H](CO)[C@H](O)[C@@H](O)[C@@H]2NC)[C@@H](N/C(N)=N\[H])[C@@H]1O` [Streptomycin sulfate, streptomycin sulfate]: the EC50 in data set [3] (setting [10]) was 16 to 32 µg/mL; in data set [3] (inoculum 10^2 CID50), 16 to 32 µg/mL; in data set [3] (inoculum 10^3 CID50), 16 to 32 µg/mL; in data set [4] (setting [11]), 63 µg/mL; in data set [4] (setting [12]), 63 µg/mL; in data set [4] (setting [13]), > 500 µg/mL. For the same molecule, the concentration giving a half-maximal response (EC50) in data set [5] (Staphylococcus aureus) is < 0.4 µg/mL; in data set [5] (inoculum 10^2 CID50), <0.4 µg/mL; in data set [5] (inoculum 10^3 CID50) it was <0.4 µg/mL; in data set [6] (Klebsiella pneumoniae) it was < 1 µg/mL. Further, the 90% effect concentration (EC90) was 16 to 32 µg/mL in data set [3] (setting [10]); 16 to 32 µg/mL in data set [3] (inoculum 10^2 CID50); 16 to 32 µg/mL in data set [3] (inoculum 10^3 CID50); 63 to 125 µg/mL in data set [4] (setting [11]); 500 µg/mL in data set [4] (setting [12]); > 500 µg/mL in data set [4] (setting [13]). In addition, the 90% effect concentration (EC90) was < 0.4 µg/mL in data set [5] (Staphylococcus aureus), <0.4 µg/mL in data set [5] (inoculum 10^2 CID50), <0.4 µg/mL in data set [5] (inoculum 10^3 CID50) and < 1 µg/mL in data set [6] (Klebsiella pneumoniae).
As for `CC1(C)S[C@@H]2[C@H](NC(=O)Cc3ccccc3)C(=O)N2[C@H]1C(=O)[O-].[Na+]` [Penicillin G, sodium penicillin G], the concentration for a half-maximal effect (EC50) in data set [3] (inoculum 10^1 CID50) was 157 to 314 µg/mL; in data set [4] (inoculum 10^1 CID50), 196 to 392 µg/mL; in data set [4] (inoculum 10^2 CID50) it was 196 to 392 µg/mL; in data set [4] (inoculum 10^3 CID50), >0.784* mg/ml; in data set [5] (inoculum 10^1 CID50), <0.5 µg/mL; in data set [5] (inoculum 10^2 CID50), <0.5 µg/mL. Moreover, the figures for the concentration giving a half-maximal response (EC50) in data set [5] (inoculum 10^3 CID50) and in data set [6] (inoculum 10^2 CID50) were 2 µg/mL and 75 µg/mL, respectively. For the same molecule, the EC90 is 0.157–0.314* mg/ml in data set [3] (inoculum 10^1 CID50); 392 µg/mL in data set [4] (inoculum 10^1 CID50); 392 to 784 µg/mL in data set [4] (inoculum 10^2 CID50); >784 µg/mL in data set [4] (inoculum 10^3 CID50); <0.5 µg/mL in data set [5] (inoculum 10^1 CID50); <0.5 µg/mL in data set [5] (inoculum 10^2 CID50). For the same molecule, the figures for the EC90 in data set [5] (inoculum 10^3 CID50) and in data set [6] (inoculum 10^2 CID50) were 2 to 4 µg/mL and 130 µg/mL, respectively.
Regarding `Nc1ccn([C@H]2CC[C@@H](CO)O2)c(=O)n1` [ddCyd, 2′,3′-dideoxycytidine], the “accelerated culture induced death of PBMCs from AIDS patients” value in data set [7] is “effective in these patients except one AIDS patient”. Besides, in data set [8], the “toxicity towards PBMCs from the healthy person” value is reported as “no toxicity”.
Regarding `OC[C@@H]1CC[C@H](n2cnc3c(O)ncnc32)O1` [ddino, 2′,3′-dideoxyinosine], the “accelerated culture induced death of PBMCs from AIDS patients” value in data set [7] is “effective in these patients except one AIDS patient”.
